One data set is described as follows: in vitro. The note with it: rat, decrease in neuronal viability, 250 nM STS alone.
Data set [1] concerns primary rat cortical neurons. The data set can be described thus: STS injury, neuronal viability and cytotoxicity.
Procedure: At D.I.V. 11, ½ media was collected (conditioned media) and mixed with an equal volume fresh neurobasal media (to make the 24 hour treatment media). STS was prepared at the desired concentration in treatment media, with or without experimental drugs (AQ2S or LY294002). The remaining growth maintenance media was replaced with 100 μL, of treatment media per well of a 96-well plate (or 2 mL for a six-well plate) for 24 hours.
The LDH Cytotoxicity Assay Kit II was purchased from Abcam (Cambridge, Mass., USA). Neurons were cultured in 96-well format and subjected to STS injury ±AQ2S for 24 hours (in 100 μL, total media volume). At 23 hours maximum LDH release (positive control) was prepared by adding 10 μL, cell lysis reagent directly to a few non-injured wells (i.e., no STS or AQ2S). At the end of the 24 hour injury period, 80 μL, of media was transferred to a new 96-well plate. Plates were spun at ˜500 g for 5 minutes. 10 μL, of cell culture treatment media was added to a new black-walled plate and advanced WST detection reagent added. The mix was incubated for ˜15 minutes and absorbance measured (OD 450 nm). Fresh culture media was used as a negative control. Cytotoxicity was calculated using the standard formula: cytotoxicity %=(sample LDH−negative-control LDH)/(maximum LDH release−negative-control LDH)×100.
The target of data set [2] is T1, recombinant active caspase-3 (Homo sapiens, UniProt P42574).
T1 construct: The reaction mixture was combined with recombinant active caspase-3 and a DEVD-AFC probe; purchased PromoKine (Heidelberg, Germany)
T1 sequence (P42574 29-175 limits assumed): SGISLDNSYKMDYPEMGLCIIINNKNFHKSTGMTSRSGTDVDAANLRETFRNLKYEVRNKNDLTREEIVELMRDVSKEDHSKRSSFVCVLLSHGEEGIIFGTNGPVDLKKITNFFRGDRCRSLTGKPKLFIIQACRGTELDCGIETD
T1 sequence (P42574 176-277 limits assumed): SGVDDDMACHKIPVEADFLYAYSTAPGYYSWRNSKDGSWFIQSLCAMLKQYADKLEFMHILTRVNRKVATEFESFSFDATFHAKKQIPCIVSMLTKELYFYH
The data set can be described thus: In vitro cell-free caspase-3 drug screening assay (DEVD-AFC). Format: biochemical.
Procedure: An in vitro caspase drug screening kit was purchased from PromoKine (Heidelberg, Germany), and used according to the manufacturer's instructions. Briefly, all drugs were dissolved in DMSO and diluted in double-distilled water to desired concentration. The reaction mixture was combined with recombinant active caspase-3 and a DEVD-AFC probe. Active caspase-3 cleaves the DEVD-recognition sequence and releases fluorescent AFC. The amount of AFC detected is a measure of caspase-3 activity. Reactions were prepared in black-walled 96-well plates, incubated at 37° C., and AFC release measured with an AFC filter (Ex: 405 nm, Em: 495-505 nM) on a GLOMax-Multi Microplate Reader (Promega).

A further data set concerns AKT. The data set can be described thus: Western blot of AKT activation (pAKT473). It is filed as cell-based, rat. The note with it: 50 μM; baseline and 250 nM STS 6 hours. The method, then: AKT is a key pro-survival kinase that is dysregulated by acute brain injury. Many diverse therapies used to prevent neuronal death activate AKT, including small molecules, endogenously derived survival proteins, and other non-pharmacology based treatments like therapeutic hypothermia. To further elucidate the mechanisms of AQ2S-mediated neuroprotection, the level of activated (phosphorylated) AKT was measured by western blot.
Neurons used for Western blot analysis for grown in 6-well plates. Briefly, neurons were treated with experimental compounds for the indicated time/conditions. At the end of each experiment, neurons were washed in ice cold PBS and harvested in 65 μL RIPA buffer containing protease inhibitors, phosphatase inhibitors, and EDTA. Extracts were collected in 0.5 mL tubes and sonicated for 20-30 seconds. Cell extracts were then spun at 4° C./16,000 g/10 minutes and stored at −80° C. until use. Frozen extracts were thawed on ice and protein concentration measured using the BCA assay (PIERCE). […] of sample protein was loaded per well of a 7.5% SDS precast gel (Biorad), and run for 30 minutes to 1 hour at 200 V. Kaleidoscope protein standards (Biorad) were run parallel to neuron extracts. Proteins were then transferred to PDVF membranes (run at 100 V/4° C./1.5 hours). PDVF membranes were washed once in tris buffered saline (TBS) and blocked for 1 hour in tris buffered saline/tween-20 with 7.5% nonfat milk (TBS-T/milk). Blots were incubated overnight at 4° C. with primary antibodies in TBS-T/milk. Cell Signaling Technology: phospho-AKT473, AKT Total, phospho-ERK1/2, ERK Total, cleavage caspase-3. Santa Cruz Antibodies: NF-κB p50 subunit, NF-κB p65 subunit, and beta actin. Calbiochem: 4-HNE antibody. Blots were washed 3 times (5 minutes each) with TBS, and incubated with secondary antibodies for 2 hours. Invitrogen: goat anti-rabbit or goat anti-mouse. Blots were washed 3 times (5 minutes each) with TBS, and incubated for 1 minute in HRP detection solution (Amersham). Films were exposed to blots and developed (SRX-101A, Konica Minolta Medical & Graphic Inc.). Re-probed blots (e.g. beta actin, AKT total, ERK total) were stripped in western blot stripping buffer (Fischer Scientific) for 10 minutes, washed once with TBS, re-blocked in TBS-T/milk for 1 hour, and incubated overnight with new primary antibody. Films were scanned (EPSON GT 20,000), and densitometry performed using UN-SCAN-IT software (Silk Scientific).

The test system of a further data set is PI3K. Particulars: studies in cancer cells; cited from earlier work.
The subject of data set [3] is primary rat cortical neurons. The data set can be described thus: H2O2 injury, neuronal viability 24 h (CellTiter-Blue). The note with it: 40 μM H2O2.

With `CN[C@@H]1C[C@H]2O[C@@](C)([C@@H]1OC)n1c3ccccc3c3c4c(c5c6ccccc6n2c5c31)C(=O)NC4` [STS, staurosporine, reference compound], the cytotoxicity at 24 h, 250 nM in the data set “in vitro” came to 81.1%. In addition, in data set [1] (250 nM STS alone, 24 h), the “decrease in neuronal viability” value was found to be 71.5%.
For the compound ZVAD-fmk [reference compound], the “activity of recombinant caspase-3” value in data set [2] is “significantly reduced the activity of recombinant caspase-3”. In addition, the “cell viability, comparison of neuroprotectants” value in data set [1] (250 nM STS co-administered 24 hours) is on record as “increased cell viability”.
As a reminder, the IC50 is the midpoint of a concentration-inhibition curve. As to `Cc1cc(O)c2c(c1)C(=O)c1cc(O)cc(O)c1C2=O` [emodin, 6-methyl-1,3,8-trihydroxyanthraquinone], the “activity of recombinant caspase-3” value in data set [2] is listed as “not a direct caspase inhibitor in the cell-free assay”. Also, the pAKT473 entry in the data set with AKT is “abolished baseline and injury induced AKT activation”. For the same compound, the half-maximal inhibitory concentration (IC50) in the data set on PI3K was 3.3 µM. Further, the “neuronal death after H2O2 injury” value in data set [3] (post-treatment 5 μM, 24 h) is on record as “failed to protect neurons”; in data set [3] (post-treatment 25 μM, 24 h), “failed to protect neurons”; in data set [3] (post-treatment 50 μM, 24 h), “exacerbated cell death”.
Turning to `O=C1c2c(O)cccc2C([C@@H]2O[C@H](CO)[C@@H](O)[C@H](O)[C@H]2O)c2cc(CO)cc(O)c21` (some centres unmarked) [aloin], in data set [3] (post-treatment, any concentration tested, 24 hours post-injury), the “neuronal death after H2O2 injury” value is reported as “ineffective at any concentration tested”.
